# Assay results: ChEMBL document CHEMBL1821700, “SAR by interligand nuclear overhauser effects (ILOEs) based discovery of acylsulfonamide compounds active against Bcl-x(L) and Mcl-1” (J Med Chem, 2011)
# Experiments:
# [1] = target: Induced myeloid leukemia cell differentiation protein Mcl-1 (Homo sapiens, UniProt Q07820); assay: Displacement of FITC labeled Bak BH3 peptide from Mcl-1 after 2 mins by Fluorescence Polarization assay
# Bcl-2-like protein 1 [2] = target: T1, Bcl-2-like protein 1 (Homo sapiens, UniProt Q07817); assay: Displacement of FITC labeled Bak BH3 peptide from Bcl-xL after 10 mins by Fluorescence Polarization assay
# Bcl-2-like protein 1 [3] = target: T1, Bcl-2-like protein 1; assay: Binding affinity to Bcl-xL by 2D- NOESY analysis
# T1 sequence (Q07817 whole entry): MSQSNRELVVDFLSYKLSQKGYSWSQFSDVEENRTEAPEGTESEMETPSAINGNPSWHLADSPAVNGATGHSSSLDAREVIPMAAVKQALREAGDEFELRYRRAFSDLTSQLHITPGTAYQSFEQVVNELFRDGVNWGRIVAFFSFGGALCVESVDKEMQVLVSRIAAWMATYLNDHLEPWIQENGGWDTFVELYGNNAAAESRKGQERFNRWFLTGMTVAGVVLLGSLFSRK
# Sequence of Induced myeloid leukemia cell differentiation protein Mcl-1 (Q07820 whole entry): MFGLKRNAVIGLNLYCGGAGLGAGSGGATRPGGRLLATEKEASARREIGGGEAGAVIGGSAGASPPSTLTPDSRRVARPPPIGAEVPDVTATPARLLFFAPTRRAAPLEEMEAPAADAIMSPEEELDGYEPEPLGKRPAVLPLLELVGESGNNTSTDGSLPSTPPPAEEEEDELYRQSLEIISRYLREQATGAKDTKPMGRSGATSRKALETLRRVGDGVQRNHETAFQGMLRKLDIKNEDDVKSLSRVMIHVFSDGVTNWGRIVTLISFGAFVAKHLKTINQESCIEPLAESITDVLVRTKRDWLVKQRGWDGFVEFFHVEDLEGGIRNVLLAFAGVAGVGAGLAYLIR
SMILES,IC50 [1] [µM],IC50 (Bcl-2-like protein 1 [2]) [µM],Kd (Bcl-2-like protein 1 [3]) [µM]
CCCCOc1ccc(S(=O)(=O)NC(=O)c2cccc(-c3ccc(Cl)c(Cl)c3)c2)cc1,38.8,12.1,–
O=C(NS(=O)(=O)c1ccc(Oc2cc(C(F)(F)F)cc(C(F)(F)F)c2)cc1)c1cccc(-c2ccc(Cl)c(Cl)c2)c1,3.04,2.94,–
O=C(NS(=O)(=O)c1ccc(COc2ccccc2)cc1)c1cccc(-c2ccc(Cl)cc2Cl)c1,8.69,9.98,–
O=C(NS(=O)(=O)c1ccc(OCC2CCCCC2)cc1)c1cccc(-c2ccc(Cl)c(Cl)c2)c1,0.62,0.16,–
O=C(NS(=O)(=O)c1ccc(Oc2ccccc2)cc1)c1ccc(-c2ccccc2)cc1,3.56,28,–
O=C(NS(=O)(=O)c1ccc(Oc2ccccc2)nc1)c1cccc(-c2cc(Cl)cc(Cl)c2)c1,9.78,2.31,–
O=C(NS(=O)(=O)c1ccc2ccccc2c1)c1cccc(-c2ccc(Cl)c(Cl)c2)c1,13.2,10.9,–
O=C(O)c1ccccc1N1CCCCC1,–,–,378
O=C(NS(=O)(=O)c1ccc(COc2ccccc2)cc1)c1ccccc1-c1ccccc1,> 1000,42.7,–
O=C(NS(=O)(=O)c1ccc(COc2ccccc2)cc1)c1ccc(-c2ccc(F)cc2)cc1,16.6,9.37,–
O=C(NS(=O)(=O)c1ccc(Oc2ccc(F)cc2)cc1)c1cccc(-c2ccc(Cl)c(Cl)c2)c1,3.91,2.87,–
O=C(NS(=O)(=O)c1ccc(COc2ccccc2)cc1)c1ccc(-c2cc(Cl)cc(Cl)c2)cc1,2.51,4.14,–
O=C(NS(=O)(=O)c1ccc(Oc2ccccc2)cc1)c1cccc(-c2ccc(Cl)c(Cl)c2)c1,2.48,1.97,–
O=C(NS(=O)(=O)c1ccc(OCc2ccccc2)cc1)c1cccc(-c2ccc(Cl)c(Cl)c2)c1,4.88,2.96,–
O=C(NS(=O)(=O)c1ccc(Oc2ccccc2)cc1)c1cccc(-c2ccccc2)c1,3.24,28.5,–
O=C(NS(=O)(=O)c1ccc(Oc2c(Cl)cccc2[N+](=O)[O-])cc1)c1cccc(-c2ccc(Cl)c(Cl)c2)c1,3.04,2,–
O=C(NS(=O)(=O)c1ccc(OCc2ccccc2)cc1)c1cccc(-c2cc(Cl)cc(Cl)c2)c1,0.22,0.18,–
COc1ccccc1Oc1ccc(S(=O)(=O)NC(=O)c2cccc(-c3ccc(Cl)c(Cl)c3)c2)cc1,6.63,3.76,–
Nc1ncccc1OCc1ccccc1,–,–,692

SMILES,IC50 [1] [µM],IC50 (Bcl-2-like protein 1 [2]) [µM],Kd (Bcl-2-like protein 1 [3]) [µM]
O=C(NS(=O)(=O)c1ccc(Oc2ccccc2)cc1)c1ccc(-c2cc(Cl)cc(Cl)c2)cc1,5.08,49.5,–
O=C(NS(=O)(=O)c1ccc(COc2ccccc2)cc1)c1ccc(-c2ccccc2)cc1,43.2,16.8,–
O=C(NS(=O)(=O)c1ccc(Oc2ccccc2)cc1)c1cccc(-c2ccc(Cl)cc2Cl)c1,3.72,1.94,–
N#Cc1c(Cl)cccc1Oc1ccc(S(=O)(=O)NC(=O)c2cccc(-c3ccc(Cl)c(Cl)c3)c2)cc1,3.18,2.7,–
O=C(NS(=O)(=O)c1ccc(COc2ccccc2)cc1)c1cccc(-c2cc(Cl)cc(Cl)c2)c1,7.57,0.31,–
O=C(NS(=O)(=O)c1ccc(COc2ccccc2)cc1)c1ccc(-c2ccc(Cl)cc2)cc1,7.26,3.79,–
O=C(NS(=O)(=O)c1ccc(Oc2ccccc2)cc1)c1ccc(-c2ccc(F)cc2)cc1,17.8,33.5,–
O=C(NS(=O)(=O)c1ccc(Oc2ccccc2)cc1)c1cccc(-c2cccc(Cl)c2Cl)c1,4.76,4.08,–
O=C(NS(=O)(=O)c1ccc(COc2ccccc2)cc1)c1cccc(-c2ccc(C(F)(F)F)cc2)c1,8.37,6.2,–
CCOc1ccc(Oc2ccc(S(=O)(=O)NC(=O)c3cccc(-c4ccc(Cl)c(Cl)c4)c3)cc2)cc1,0.14,0.086,–
O=C(O)c1ccc(-c2ccc(F)cc2)cc1,–,–,300
COc1ccc(-c2cccc(C(=O)NS(=O)(=O)c3ccc(Oc4ccccc4)cc3)c2)cc1OC,42.6,> 1000,–
O=C(NS(=O)(=O)c1ccc(COc2ccccc2)cc1)c1cccc(-c2ccccc2)c1,25.4,15.1,–
O=C(NS(=O)(=O)c1ccc(Oc2ccccc2)cc1)c1cccc(-c2cc(Cl)cc(Cl)c2)c1,7.11,2.53,–
O=C(NS(=O)(=O)c1ccc(-c2ccccc2)cc1)c1ccc(Oc2ccccc2)cc1,> 1000,161,–
O=C(NS(=O)(=O)c1ccc(COc2ccccc2)cc1)c1cccc(-c2ccc(Cl)c(Cl)c2)c1,5.76,7.15,–
O=C(NS(=O)(=O)c1ccc(OCc2ccccc2)cc1)c1ccc(-c2cc(Cl)cc(Cl)c2)cc1,6.3,3.19,–
Oc1cccc2c1CCCC2,–,–,4300
